From publication PMC8634383, “Switching Bond: Generation of New Antimicrobial Peptides via the Incorporation of an Intramolecular Isopeptide Bond” (ACS Infectious Diseases, 2021) come the findings set out here.

≈ marks a conversion by molar mass, not a printed value. Starred links: 1 amine or outer side, 2 acyl side, 3 side chain; linkers in the order of their positions; H or OH if unused. Positions of bridges follow the written chain, without caps; N, C: chain ends. Non-standard residues stand in square brackets, D forms with d. Residues, ends and D or L forms follow the SMILES beside them. Chains are numbered I, II in the order given. No end group written: not given here. εLys = N[C@@H](CCCCN[*:1])C(=O)[*:2]

For orientation: MIC means the lowest concentration found to suppress growth. By fraction remaining is commonly meant the share of the starting amount still present when the sample was taken.

Data set [1] relates to Pseudomonas aeruginosa PA01. Format: cell-based. The following applies: 24 h. As to the method: (§1) A panel of four bacteria, including two Gram-negative (P. aeruginosa, E. coli) and two Gram-positive (S. aureus, B. subtilis) bacterial strains, was used to test the antibacterial properties of the peptides. The bacteria P. aeruginosa, E. coli, and S. aureus belong to the ESKAPE group of pathogens, which are potential multidrug resistant strains that are majorly involved in various nosocomial infections.
(§2) The antimicrobial activity of the peptides was determined against two Gram-negative (Pseudomonas aeruginosa PA01 and the Escherichia coli K12 parental type) and two Gram-positive (Staphylococcus aureus and Bacillus subtilis) bacteria. The minimal inhibitory concentration (MIC) assays were performed as reported by Wiegand et al.,[50] using the broth microdilution method in 96-well round-bottom microplates. Briefly, bacterial cells in mid log phase were cultured in Mueller-Hinton broth (MHB) and then diluted to 10^6 CFU/mL. Aliquots of 50 μL of bacterial solution were added to 50 μL of MHB medium containing 2-fold serially diluted peptides with concentrations ranging from 1.56 to 50 μM. Plates were incubated at 37 °C for 24 h, and MICs were defined as the lowest concentration of peptide that prevented detectable turbidity. Cultures without peptides and uninoculated MHB were employed as positive and negative controls, respectively. The bacterial growth inhibition was evaluated by measuring the absorbance at 600 nm using a microplate autoreader (SynersyMx, Biotek).

In data set [2] the test system is Escherichia coli K12 parental type. Format: cell-based. The settings on record: K12, 24 h. Here is the method: as §1, §2
The next data set concerns Bacillus subtilis. Format: cell-based. The settings on record: 24 h. Here is the method:
as §1, §2

Data set [3] relates to human monocytic (THP-1) cells. Format: cell-based. The following applies: 100 µM. As to the method: Peptide-induced cytotoxicity was assessed against murine macrophage (RAW 264.7) cells and human monocytic (THP-1) cells using the benzenesulfonic acid hydrate and N-methyl dibenzopyrazine methyl sulfate (XTT) dye reduction assay. […] This may in part be due to low hydrophobicity (Table 1), leading to less bacterial membrane alteration.
Figure 3 Cytotoxicity of peptides (1.56–100 μM) on human monocytic (THP-1) cells. Cell viability was analyzed and quantified by measuring the absorption at 450 nm. The data is presented as mean percent viability. All data represent mean ± SD from three independent experiments. One-way analysis of variance was used to analyze the data.
The cytotoxicity of the peptides toward the murine macrophage cells (RAW 264.7) and human monocytic (THP-1) cells was assayed using the colorimetric 2,3-bis(2-methoxy-4-nitro-5-sulfophenyl)-2H-tetrazolium-5-carboxanilide (XTT) method. […] After incubation, the cell viabilities were assessed by the XTT reaction solution (100 μL), and benzenesulfonic acid hydrate and N-methyl dibenzopyrazine methyl sulfate (mixed in a 50:1 ratio) were added for an additional 4 h incubation at 37 °C. The absorbance at 450 nm was then measured using a microplate autoreader (SynersyMx, Biotek). The percentage of cell viability was calculated relative to the 100% survival control after the blank read’s deduction.

A short description of another data set: in vitro. The following applies: for percentage intact peptide: 20% (v/v) human plasma, 37 °C, RP-HPLC C18, 215 nm peak area; for remaining at 0.25 h, 200 μM / remaining at 0.5 h, 200 μM / remaining at 1 h, 200 μM / remaining at 2 h, 200 μM / remaining at 4 h, 200 μM: human, blood plasma (20% v/v), pH 7.4. As to the method: The stability of the peptides was assessed by incubating them in blood plasma (20% v/v) rich in proteases thrombin and plasmin for different time periods at 37 °C.
The stability of peptides in human blood plasma was measured using a literature procedure.[13],[53] Plasma was separated from red blood cells over centrifugation, frozen, and stored at −80 °C until use. Briefly, peptides were prepared as a 1 mM solution in phosphate buffered saline (pH 7.4). 20 μL of the peptide solution was diluted in 80 μL of blood plasma (20% v/v). The solution was incubated at 37 °C for different time points, and 100 μL of a mixture containing 80% acetonitrile/10% methanol/10% water was added to stop further degradation of the peptides. A cloudy solution was produced upon the addition of the stopping solution, and the sample was cooled to 4 °C for 1 h and then centrifuged at 10 000 rpm for 10 min to remove the plasma proteins as precipitate. The supernatant (50 μL) was injected onto a reversed-phase HPLC (C18 reverse phase, Bio-Rad analytical column, 250 × 4 mm, 300 Å pore size, 7 μm particle size). The column was eluted in 40 min using a linear gradient of 10–90% acetonitrile in water containing 0.1% trifluoroacetic acid (v/v) at a flow rate of 0.6 mL/min, and the absorbance was detected at 215 nm. The percentage of remaining peptide was determined by the decrease in chromatographic peak area.

Another data set relates to trypsin. Put plainly: in vitro. The following applies: for remaining at 1 h, 100 μM: trypsin in phosphate buffered saline; for peptide remaining intact after trypsin incubation: trypsin 10 μg/mL, peptide 100 μM in PBS, 1 h, RP-HPLC C18 peak area relative to t0. An excerpt:
In order to overcome the proteolytic instability of peptide based drugs, the resistance of peptides to proteases is an essential prerequisite[33] because the peptides can be digested by the microbial or host protease and lose activity. Here, we tested the effect of the incorporation of an amide bond isostere on the resistance to trypsin, a serine protease known to cleave peptide bonds mainly at the C-terminal side of the amino acids lysine or arginine.
Figure 5 Resistance of peptides to trypsin digestion.
Proteolysis was measured by RP-HPLC using the following parameters, as reported.[52] Trypsin with a final concentration of 10 μg/mL was added to a solution of the peptides in phosphate buffered saline (100 μM), and the reaction was monitored over time by using reversed-phase HPLC (C18 reverse phase, Bio-Rad analytical column, 250 × 4 mm, 300 Å pore size, 7 μm particle size). The column was eluted in 40 min using a linear gradient of 10–90% acetonitrile in water containing 0.1% trifluoroacetic acid (v/v) at a flow rate of 0.6 mL/min.

Another data set relates to Staphylococcus aureus. Format: cell-based. The following applies: 24 h. Here is the method: as §1, §2

`CC(C)C[C@H](NC(=O)[C@H](CC(C)C)NC(=O)[C@@H](N)CCCCNC(=O)[C@H](CC(C)C)NC(=O)[C@H](CC(C)C)NC(=O)[C@H](CCCCN)NC(=O)[C@@H](N)CCCCNC(=O)[C@H](CC(C)C)NC(=O)[C@H](CC(C)C)NC(=O)[C@H](CCCCN)NC(=O)[C@@H](N)CCCCNC(=O)[C@H](CC(C)C)NC(=O)[C@H](CC(C)C)NC(=O)[C@H](CCCCN)NC(=O)[C@@H](N)CC(C)C)C(N)=O` [Amp1EP] (I: H-LKLL[εLys]KLL / II: H-KKLL[εLys]LL-NH2; amide I:C-II:1) displayed an MIC in data set [1] of 3.125 to 6.25 µM. In addition, the MIC in data set [2] is 6.25 µM (≈ 11.3 µg/mL). In the data set on Bacillus subtilis, this compound showed an MIC of 12.5 µM (≈ 22.6 µg/mL). For the same compound, the “drop of cell viability” value in data set [3] was 50%. Also, the percentage intact peptide in the data set “in vitro” (30 min) is recorded as about 85%. In the data set “in vitro”, this compound returned an amount remaining at 0.25 h, 200 μM of 85%; a fraction remaining at 0.5 h, 200 μM of 85%; a share remaining at 1 h, 200 μM of 66%; a fraction remaining at 2 h, 200 μM of 60%. Moreover, the fraction remaining at 4 h, 200 μM in the data set “in vitro” stood at 37%. In the data set on trypsin, the fraction remaining at 1 h, 100 μM is 37%.
`CC[C@H](C)[C@H](NC(=O)CN)C(=O)NCC(=O)N[C@@H](CCCCN)C(=O)N[C@@H](Cc1ccccc1)C(=O)N[C@@H](CC(C)C)C(=O)N[C@@H](CCCCN)C(=O)NCCCC[C@H](N)C(=O)N[C@@H](C)C(=O)N[C@@H](CCCCN)C(=O)N[C@@H](CCCCN)C(=O)N[C@@H](Cc1ccccc1)C(=O)NCC(=O)NCCCC[C@H](N)C(=O)N[C@@H](C)C(=O)N[C@@H](Cc1ccccc1)C(=O)N[C@H](C(=O)NCCCC[C@H](N)C(=O)N[C@H](C(=O)N[C@@H](CC(C)C)C(=O)N[C@@H](CCCCN)C(=O)N[C@@H](CCCCN)C(N)=O)[C@@H](C)CC)C(C)C` [MSIEP] (H-GIGKFLK[εLys]AKKFG[εLys]AFV[εLys]ILKK-NH2) yielded an MIC in data set [1] of 6.25 to 12.5 µM. The minimal inhibitory concentration (MIC) against Staphylococcus aureus is 6.25 to 12.5 µM. Besides, in data set [2], the MIC amounted to 12.5 µM (≈ 31 µg/mL). Also, in the data set with Bacillus subtilis, the MIC is 6.25 to 12.5 µM. Besides, in data set [3], the “drop of cell viability” value is given as 20%. In addition, in “in vitro”, the amount remaining at 0.25 h, 200 μM turned out to be 99%; the fraction remaining at 0.5 h, 200 μM turned out to be 98%; the fraction remaining at 1 h, 200 μM came to 76%; the amount remaining at 2 h, 200 μM stood at 75%. For the same compound, in “in vitro”, the fraction remaining at 4 h, 200 μM turned out to be 75%. Further, the fraction remaining at 1 h, 100 μM in the data set on trypsin is over 66%.
For the compound GIGKFLKKAKKFGKAFVKILKK-NH2 [MSI-78], the MIC in the data set on Staphylococcus aureus was 0.78 to 1.56 µM. Also, in data set [2], the MIC lay within 1.56 to 3.12 µM. Further, the MIC in the data set on Bacillus subtilis stood at 1.56 µM. In the data set “in vitro”, this compound registered a share remaining at 0.25 h, 200 μM of 91%; a share remaining at 0.5 h, 200 μM of 81%; an amount remaining at 1 h, 200 μM of 81%; a fraction remaining at 2 h, 200 μM of 63%. The compound further returned a fraction remaining at 4 h, 200 μM in the data set “in vitro” of 55%. Also, in the data set on trypsin, the “peptide remaining intact after trypsin incubation” value is listed as “no longer detected”.
Consider LKLLKKLLKKLLKLL-NH2 [Amp1L], for which, in data set [2], the MIC fell in the range of 3.12 to 6.25 µM. Besides, the MIC against Bacillus subtilis was 6.25 to 12.5 µM. Also, in the data set “in vitro” (30 min), the percentage intact peptide is reported as about 65%. Also, the percentage intact peptide in the data set “in vitro” (120 min) was about 61%. In the data set “in vitro”, this compound came in with a share remaining at 0.25 h, 200 μM of 71%; a share remaining at 0.5 h, 200 μM of 65%; a fraction remaining at 1 h, 200 μM of 62%; a fraction remaining at 2 h, 200 μM of 61%. This compound also came in with an amount remaining at 4 h, 200 μM in the data set “in vitro” of 39%. Further, the “peptide remaining intact after trypsin incubation” value in the data set on trypsin is on record as “no longer detected”.
